Values quoted from earlier work as cited in PubChem BioAssay AID1259409 (Chemical Carcinogenesis Research Information System (CCRIS), 2018).

Tested on: rodent chemically induced tumor inhibition, incidence and multiplicity
Assay: CCRIS tumor inhibitor studies
Conditions: Dose [Inhibitor]: 0

O=c1cc(-c2ccccc2)oc2ccccc12
tumour outcome (control, treated, inhibition, significance) (Carcinogen: 7,12-DIMETHYLBENZ[A]ANTHRACENE, 57-97-6, 45 NMOL IN 0.2 ML ACETONE APPLIED 5 MIN PRIOR TO CARCINOGEN (STUDY DURATION: 21 WK), Route [Inhibitor]: DERMAL, Species: MOUSE, Strain/Sex: SENCAR/FEMALE, Target Tissue: Type of Lesion: SKIN: PAPILLOMA, Dose [Carcinogen]: 10 NMOL IN 0.2 ML ACETONE ONCE, Promoter: 12-O-TETRADECANOYLPHORBOL-13-ACETATE, 16561-29-8): 79%, 93%, -18%, not calculated
tumour outcome (control, treated, inhibition, significance) (Carcinogen: 7,12-DIMETHYLBENZ[A]ANTHRACENE, 57-97-6, 450 NMOL IN 0.2 ML ACETONE APPLIED 5 MIN PRIOR TO CARCINOGEN (STUDY DURATION: 21 WK), Route [Inhibitor]: DERMAL, Species: MOUSE, Strain/Sex: SENCAR/FEMALE, Target Tissue: Type of Lesion: SKIN: PAPILLOMA, Dose [Carcinogen]: 10 NMOL IN 0.2 ML ACETONE ONCE, Promoter: 12-O-TETRADECANOYLPHORBOL-13-ACETATE, 16561-29-8): 79%, 100%, -27%, not calculated
tumour outcome (control, treated, inhibition, significance) (Carcinogen: 7,12-DIMETHYLBENZ[A]ANTHRACENE, 57-97-6, 4500 NMOL IN 0.2 ML ACETONE APPLIED 5 MIN PRIOR TO CARCINOGEN (STUDY DURATION: 21 WK), Route [Inhibitor]: DERMAL, Species: MOUSE, Strain/Sex: SENCAR/FEMALE, Target Tissue: Type of Lesion: SKIN: PAPILLOMA, Dose [Carcinogen]: 10 NMOL IN 0.2 ML ACETONE ONCE, Promoter: 12-O-TETRADECANOYLPHORBOL-13-ACETATE, 16561-29-8): 79%, 80%, -1%, not calculated
tumour outcome (control, treated, inhibition, significance) (Carcinogen: 7,14-DIMETHYLBENZO[A,H]ANTHRACENE, 35335-07-0, 45 NMOL IN 0.2 ML ACETONE APPLIED 5 MIN PRIOR TO CARCINOGEN (STUDY DURATION: 21 WK), Route [Inhibitor]: DERMAL, Species: MOUSE, Strain/Sex: SENCAR/FEMALE, Target Tissue: Type of Lesion: SKIN: PAPILLOMA, Dose [Carcinogen]: 47.5 NMOL IN 0.2 ML ACETONE ONCE, Promoter: 12-O-TETRADECANOYLPHORBOL-13-ACETATE, 16561-29-8): 97%, 97%, 0%
tumour outcome (control, treated, inhibition, significance) (Carcinogen: 7,14-DIMETHYLBENZO[A,H]ANTHRACENE, 35335-07-0, 450 NMOL IN 0.2 ML ACETONE APPLIED 5 MIN PRIOR TO CARCINOGEN (STUDY DURATION: 21 WK), Route [Inhibitor]: DERMAL, Species: MOUSE, Strain/Sex: SENCAR/FEMALE, Target Tissue: Type of Lesion: SKIN: PAPILLOMA, Dose [Carcinogen]: 47.5 NMOL IN 0.2 ML ACETONE ONCE, Promoter: 12-O-TETRADECANOYLPHORBOL-13-ACETATE, 16561-29-8): 97%, 97%, 0%
tumour outcome (control, treated, inhibition, significance) (Carcinogen: 7,14-DIMETHYLBENZO[A,H]ANTHRACENE, 35335-07-0, 4500 NMOL IN 0.2 ML ACETONE APPLIED 5 MIN PRIOR TO CARCINOGEN (STUDY DURATION: 21 WK), Route [Inhibitor]: DERMAL, Species: MOUSE, Strain/Sex: SENCAR/FEMALE, Target Tissue: Type of Lesion: SKIN: PAPILLOMA, Dose [Carcinogen]: 47.5 NMOL IN 0.2 ML ACETONE ONCE, Promoter: 12-O-TETRADECANOYLPHORBOL-13-ACETATE, 16561-29-8): 97%, 68%, 30%, not calculated
tumour outcome (control, treated, inhibition, significance) (Carcinogen: DIBENZO[A,H]ANTHRACENE, 53-70-3, 45 NMOL IN 0.2 ML ACETONE APPLIED 5 MIN PRIOR TO CARCINOGEN (STUDY DURATION: 21 WK), Route [Inhibitor]: DERMAL, Species: MOUSE, Strain/Sex: SENCAR/FEMALE, Target Tissue: Type of Lesion: SKIN: PAPILLOMA, Dose [Carcinogen]: 200 NMOL IN 0.2 ML ACETONE ONCE, Promoter: 12-O-TETRADECANOYLPHORBOL-13-ACETATE, 16561-29-8): 100%, 93%, 7%, not calculated
tumour outcome (control, treated, inhibition, significance) (Carcinogen: DIBENZO[A,H]ANTHRACENE, 53-70-3, 450 NMOL IN 0.2 ML ACETONE APPLIED 5 MIN PRIOR TO CARCINOGEN (STUDY DURATION: 21 WK), Route [Inhibitor]: DERMAL, Species: MOUSE, Strain/Sex: SENCAR/FEMALE, Target Tissue: Type of Lesion: SKIN: PAPILLOMA, Dose [Carcinogen]: 200 NMOL IN 0.2 ML ACETONE ONCE, Promoter: 12-O-TETRADECANOYLPHORBOL-13-ACETATE, 16561-29-8): 100%, 86%, 14%, not calculated
tumour outcome (control, treated, inhibition, significance) (Carcinogen: DIBENZO[A,H]ANTHRACENE, 53-70-3, 4500 NMOL IN 0.2 ML ACETONE APPLIED 5 MIN PRIOR TO CARCINOGEN (STUDY DURATION: 21 WK), Route [Inhibitor]: DERMAL, Species: MOUSE, Strain/Sex: SENCAR/FEMALE, Target Tissue: Type of Lesion: SKIN: PAPILLOMA, Dose [Carcinogen]: 200 NMOL IN 0.2 ML ACETONE ONCE, Promoter: 12-O-TETRADECANOYLPHORBOL-13-ACETATE, 16561-29-8): 100%, 93%, 7%, not calculated
tumour outcome (control, treated, inhibition, significance) (1000 PPM IN DIET BEGINNING 8 WK PRIOR TO CARCINOGEN AND CONTINUING FOR 6 WK POST CARCINOGEN (STUDY DURATION: 68 WK), Route [Inhibitor]: ORAL, Species: FISH, Strain/Sex: RAINBOW TROUT, Target Tissue: Type of Lesion: LIVER: HEPATOCELLULAR CARCINOMA, Dose [Carcinogen]: 20 PPB IN DIET FOR 2 WK, Promoter: NONE USED): 43/118 (36%), 45/120 (38%), -5%, not significant
